pIC50: −log10 of the molar value. Read-outs that look alike come from different tables or passages of the source.
Legend:
[1] = molecular target: T1, human α4β2 neuronal nicotinic receptor (Homo sapiens, UniProt P17787+P43681); assay: α4β2 neuronal nicotinic receptor assay (agonist radioligand, [3H]cytisine); format: binding
T1 construct: host or cells: SH-SY5Y cells (membrane homogenates)
Procedure: Cell membrane homogenates (30 μg protein) were incubated for 120 min at 4° C. with 0.6 nM [3H]cytisine in the absence or presence of the test compound in a buffer containing 50 mM Tris-HCl (pH 7.4), 120 mM NaCl, 5 mM KCl, 2.5 mM CaCl2 and 1 mM MgCl2. Nonspecific binding was determined in the presence of 10 μM nicotine bitartrate. Following incubation, the samples were filtered rapidly under vacuum through glass fiber filters (GF/B, Packard) presoaked with 0.3% PEI and rinsed several times with ice-cold 50 mM Tris-HCl using a 96-sample cell harvester (Unifilter, Packard).
The filters were dried then counted for radioactivity in a scintillation counter (Topcount, Packard) using a scintillation cocktail (Microscint 0, Packard). The results were expressed as a percent inhibition of the control radioligand specific binding. The standard reference compound was nicotine bitartrate.
A number of example compounds of formula (I) were tested to evaluate their affinity for the human α4β2 neuronal nicotinic receptor expressed in transfected SH-SY5Y cells, determined in a radioligand binding assay.

[2] = molecular target: T2, MTHFD1 recombinant human enzyme (Homo sapiens, UniProt P11586); assay: MTHFD1 inhibition assay (NAD(P)H-Glo luminescence)
T2 sequence (P11586 2-291 limits assumed): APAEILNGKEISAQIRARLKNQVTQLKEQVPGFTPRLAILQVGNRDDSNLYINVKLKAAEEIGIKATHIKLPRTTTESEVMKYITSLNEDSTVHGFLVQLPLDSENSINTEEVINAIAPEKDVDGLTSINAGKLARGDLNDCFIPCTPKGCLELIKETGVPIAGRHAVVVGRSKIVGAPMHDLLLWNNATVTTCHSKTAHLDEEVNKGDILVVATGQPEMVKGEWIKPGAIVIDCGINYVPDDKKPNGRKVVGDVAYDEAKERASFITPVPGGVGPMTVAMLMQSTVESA

[3] = molecular target: T3, MTHFD2 recombinant human enzyme (Homo sapiens, UniProt P13995); assay: MTHFD2 inhibition assay (NAD(P)H-Glo luminescence); conditions: for MTHFD1/MTHFD2 IC50 ratio: selectivity of MTHFD2 inhibition over MTHFD1, band
T3 sequence (P13995 36-350): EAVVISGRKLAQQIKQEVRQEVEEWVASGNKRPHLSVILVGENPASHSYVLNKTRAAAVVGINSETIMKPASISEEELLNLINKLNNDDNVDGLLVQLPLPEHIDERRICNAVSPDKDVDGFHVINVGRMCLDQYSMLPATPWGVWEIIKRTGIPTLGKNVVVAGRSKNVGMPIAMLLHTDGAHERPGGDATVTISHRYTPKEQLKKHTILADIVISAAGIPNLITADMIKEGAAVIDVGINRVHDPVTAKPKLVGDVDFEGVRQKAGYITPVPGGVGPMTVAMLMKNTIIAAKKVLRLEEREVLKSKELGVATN

human CD4+ T cells = assay: Human CD4+ T-cell proliferation assay (CFSE, CD3/28 beads); conditions: read-out: Proliferation IC50
[4] = transfected SH-SY5Y cell membranes, 0.6 nM [3H]cytisine, band
[5] = MTHFD1 IC50, recombinant human enzyme 200 nM, NADP, band

T1 sequence (P43681 29-627 limits assumed): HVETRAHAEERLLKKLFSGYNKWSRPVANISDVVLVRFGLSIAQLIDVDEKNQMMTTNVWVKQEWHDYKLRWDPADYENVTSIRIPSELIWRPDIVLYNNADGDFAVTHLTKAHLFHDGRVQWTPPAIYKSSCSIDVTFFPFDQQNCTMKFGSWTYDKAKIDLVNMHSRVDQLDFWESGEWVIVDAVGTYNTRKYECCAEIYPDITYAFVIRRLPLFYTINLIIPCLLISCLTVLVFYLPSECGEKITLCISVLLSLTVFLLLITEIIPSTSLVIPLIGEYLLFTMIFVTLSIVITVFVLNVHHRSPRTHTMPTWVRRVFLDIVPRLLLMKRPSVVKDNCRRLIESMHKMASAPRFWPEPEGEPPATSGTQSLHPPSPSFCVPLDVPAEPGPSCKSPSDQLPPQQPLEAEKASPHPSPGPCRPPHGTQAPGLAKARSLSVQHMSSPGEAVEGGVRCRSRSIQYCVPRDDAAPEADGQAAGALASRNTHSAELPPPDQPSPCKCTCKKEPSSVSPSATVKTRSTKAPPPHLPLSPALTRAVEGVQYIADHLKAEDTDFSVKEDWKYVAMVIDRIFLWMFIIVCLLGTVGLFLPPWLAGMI
T1 sequence (P17787 26-502): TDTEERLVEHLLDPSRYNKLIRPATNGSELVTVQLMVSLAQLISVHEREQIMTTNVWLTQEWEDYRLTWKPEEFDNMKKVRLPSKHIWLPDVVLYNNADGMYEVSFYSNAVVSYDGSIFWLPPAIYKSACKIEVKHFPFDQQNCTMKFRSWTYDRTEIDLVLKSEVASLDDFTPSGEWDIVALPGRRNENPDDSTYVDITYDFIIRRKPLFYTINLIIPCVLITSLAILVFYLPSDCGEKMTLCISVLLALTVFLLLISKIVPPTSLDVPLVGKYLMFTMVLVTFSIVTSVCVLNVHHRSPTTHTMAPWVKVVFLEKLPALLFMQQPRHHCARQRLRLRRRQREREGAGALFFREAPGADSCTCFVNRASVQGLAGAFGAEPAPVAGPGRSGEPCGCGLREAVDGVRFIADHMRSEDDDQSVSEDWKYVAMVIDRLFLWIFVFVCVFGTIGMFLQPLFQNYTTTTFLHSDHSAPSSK

| SMILES | pIC50 [1, 4] | pIC50 [2, 5] | pIC50 [3] | MTHFD1/MTHFD2 IC50 ratio [3] | pIC50 [1] | pIC50 ([2]; MTHFD1 IC50, specific value, average of multiple repeats) | pIC50 ([3]; MTHFD2 IC50, recombinant human enzyme 40 nM, NAD+, band) | pIC50 ([3]; MTHFD2 IC50, specific value, average of multiple repeats) | pIC50 (human CD4+ T cells) |
| --- | --- | --- | --- | --- | --- | --- | --- | --- | --- |
| Cc1c(N2CCN(C)[C@@H](C)C2)ccc2c3c(c(=O)oc12)CN(C(=O)c1ccc(NS(C)(=O)=O)c(OC(F)(F)F)c1)CC3 [Reference Example 1, reference compound] | > 5.70 | 6.00 to 7.00 | – | – | > 5.70 | 6.39 | 7.00 to 8.00 | 7.35 | – |
| COC[C@H]1CN(c2cc(C)c3c4c(c(=O)oc3c2C)CN(C(=O)c2ccc(C(=O)NS(=O)(=O)N(C)C(C)C)c(OC3CCCC3)c2F)CC4)CCN1C [Example 24, (R)-2-(cyclopentyloxy)-3-fluoro-N-(N-isopropyl-N-methylsulfamoyl)-4-(8-(3-(methoxymethyl)-4-methylpiperazin-1-yl)-7,10-dimethyl-5-oxo-1,3,4,5-tetrahydro-2H-chromeno[3,4-c]pyridine-3-carbonyl)benzamide] | 4.00 to 4.70 | 8.00 to 9.00 | 8.00 to 9.00 | F (<3) | – | – | – | – | – |
| COC[C@@H]1CN(c2cc(C)c3c4c(c(=O)oc3c2C)CN(C(=O)c2ccc(C(=O)NS(=O)(=O)N3CCCC3)c(OC3CCC3)c2F)CC4)CCN1C [Example 174, (S)-2-cyclobutoxy-3-fluoro-4-(8-(3-(methoxymethyl)-4-methylpiperazin-1-yl)-7,10-dimethyl-5-oxo-1,3,4,5-tetrahydro-2H-chromeno[3,4-c]pyridine-3-carbonyl)-N-(pyrrolidin-1-ylsulfonyl)benzamide] | 4.00 to 4.70 | 6.00 to 7.00 | 7.00 to 8.00 | G (^ 3 to 9.0) | – | – | – | – | 7.52 to 8.00 |
| COC[C@H]1CN(c2cc(C)c3c4c(c(=O)oc3c2C)CN(C(=O)c2ccc(C(=O)NS(=O)(=O)N3CC5CC5C3)c(OC)c2F)CC4)CCN1C (stereo partly drawn) [Example 156, N-((3-azabicyclo[3.1.0]hexan-3-yl)sulfonyl)-3-fluoro-2-methoxy-4-(8-((R)-3-(methoxymethyl)-4-methylpiperazin-1-yl)-7,10-dimethyl-5-oxo-1,3,4,5-tetrahydro-2H-chromeno[3,4-c]pyridine-3-carbonyl)benzamide] | 4.00 to 4.70 | 6.00 to 7.00 | 7.00 to 8.00 | – | – | – | – | – | 7.00 to 7.52 |
| COC[C@H]1CN(c2ccc3c4c(c(=O)oc3c2C)CN(C(=O)c2ccc(C(=O)NS(=O)(=O)N3CCCC3)c(OC3CCC3)c2F)CC4)CCN1C [Example 54, (R)-2-cyclobutoxy-3-fluoro-4-(8-(3-(methoxymethyl)-4-methylpiperazin-1-yl)-7-methyl-5-oxo-1,3,4,5-tetrahydro-2H-chromeno[3,4-c]pyridine-3-carbonyl)-N-(pyrrolidin-1-ylsulfonyl)benzamide] | < 4.00 | 7.00 to 8.00 | 7.00 to 8.00 | F (<3) | – | – | – | – | 7.52 to 8.00 |
| COC[C@H]1CN(c2ccc3c4c(c(=O)oc3c2C)CN(C(=O)c2ccc(C(=O)NS(=O)(=O)N3CCCC3)c(OC3CCCC3)c2F)CC4)CCN1C [Example 12, (R)-2-(cyclopentyloxy)-3-fluoro-4-(8-(3-(methoxymethyl)-4-methylpiperazin-1-yl)-7-methyl-5-oxo-1,3,4,5-tetrahydro-2H-chromeno[3,4-c]pyridine-3-carbonyl)-N-(pyrrolidin-1-ylsulfonyl)benzamide] | < 4.00 | 8.00 to 9.00 | 8.00 to 9.00 | F (<3) | – | – | – | – | – |
| COC[C@H]1CN(c2cc(C)c3c4c(c(=O)oc3c2C)CN(C(=O)c2ccc(C(=O)NS(=O)(=O)N(C)C(C)C)c(OC3CCC3)c2F)CC4)CCN1C [Example 25, (R)-2-cyclobutoxy-3-fluoro-N-(N-isopropyl-N-methylsulfamoyl)-4-(8-(3-(methoxymethyl)-4-methylpiperazin-1-yl)-7,10-dimethyl-5-oxo-1,3,4,5-tetrahydro-2H-chromeno[3,4-c]pyridine-3-carbonyl)benzamide] | 4.00 to 4.70 | 8.00 to 9.00 | 8.00 to 9.00 | F (<3) | – | – | – | – | – |
| COC[C@H]1CN(c2ccc3c4c(c(=O)oc3c2C)CN(C(=O)c2ccc(C(=O)NS(=O)(=O)N(C)C)c(N3CCCC3)c2)CC4)CCN1C [Example 18, (R)-N-(N,N-dimethylsulfamoyl)-4-(8-(3-(methoxymethyl)-4-methylpiperazin-1-yl)-7-methyl-5-oxo-1,3,4,5-tetrahydro-2H-chromeno[3,4-c]pyridine-3-carbonyl)-2-(pyrrolidin-1-yl)benzamide] | < 4.00 | 7.00 to 8.00 | 8.00 to 9.00 | G (^ 3 to 9.0) | – | – | – | – | – |
| COC[C@H]1CN(c2cc(C)c3c4c(c(=O)oc3c2C)CN(C(=O)c2ccc(C(=O)NS(=O)(=O)C3(C)CC3)c(OC3CCC3)c2)CC4)CCN1C [Example 2, (R)-2-cyclobutoxy-4-(8-(3-(methoxymethyl)-4-methylpiperazin-1-yl)-7,10-dimethyl-5-oxo-1,3,4,5-tetrahydro-2H-chromeno[3,4-c]pyridine-3-carbonyl)-N-((1-methylcyclopropyl)sulfonyl)benzamide] | 4.00 to 4.70 | 6.00 to 7.00 | 7.00 to 8.00 | G (^ 3 to 9.0) | – | – | – | – | – |

Now from value to molecule, other results behind:

| pIC50 [1, 4] | pIC50 [2, 5] | pIC50 [3] | MTHFD1/MTHFD2 IC50 ratio [3] | SMILES | pIC50 [1] | pIC50 ([2]; MTHFD1 IC50, specific value, average of multiple repeats) | pIC50 ([3]; MTHFD2 IC50, recombinant human enzyme 40 nM, NAD+, band) | pIC50 ([3]; MTHFD2 IC50, specific value, average of multiple repeats) | pIC50 (human CD4+ T cells) |
| --- | --- | --- | --- | --- | --- | --- | --- | --- | --- |
| 4.00 to 4.70 | 8.00 to 9.00 | 8.00 to 9.00 | F (<3) | COC[C@H]1CN(c2cc(C)c3c4c(c(=O)oc3c2C)CN(C(=O)c2ccc(C(=O)NS(=O)(=O)N3CCCC3)c(OC3CCCC3)c2F)CC4)CCN1C [Example 4, (R)-2-(cyclopentyloxy)-3-fluoro-4-(8-(3-(methoxymethyl)-4-methylpiperazin-1-yl)-7,10-dimethyl-5-oxo-1,3,4,5-tetrahydro-2H-chromeno[3,4-c]pyridine-3-carbonyl)-N-(pyrrolidin-1-ylsulfonyl)benzamide] | – | – | – | – | 8.00 to 9.00 |
| < 4.00 | 6.00 to 7.00 | 8.00 to 9.00 | J (>30) | COC[C@H]1CN(c2cc(C)c3c4c(c(=O)oc3c2C)CN(C(=O)c2cc(N(C)C)c(C(=O)NS(=O)(=O)C3(C)CC3)cc2F)CC4)CCN1C [Example 145, (R)-2-(dimethylamino)-5-fluoro-4-(8-(3-(methoxymethyl)-4-methylpiperazin-1-yl)-7,10-dimethyl-5-oxo-1,3,4,5-tetrahydro-2H-chromeno[3,4-c]pyridine-3-carbonyl)-N-((1-methylcyclopropyl)sulfonyl)benzamide] | – | – | – | – | 7.52 to 8.00 |
| < 4.00 | 7.00 to 8.00 | 7.00 to 8.00 | G (^ 3 to 9.0) | COC[C@H]1CN(c2cc(C)c3c4c(c(=O)oc3c2C)CN(C(=O)c2ccc(C(=O)NS(=O)(=O)C3(C)CC3)c(N3CCCC3)c2F)CC4)CCN1C [Example 69, (R)-3-fluoro-4-(8-(3-(methoxymethyl)-4-methylpiperazin-1-yl)-7,10-dimethyl-5-oxo-1,3,4,5-tetrahydro-2H-chromeno[3,4-c]pyridine-3-carbonyl)-N-((1-methylcyclopropyl)sulfonyl)-2-(pyrrolidin-1-yl)benzamide] | – | – | – | – | 8.00 to 9.00 |
| 4.70 to 5.70 | 8.00 to 9.00 | 8.00 to 9.00 | G (^ 3 to 9.0) | COC[C@H]1CN(c2cc(C)c3c4c(c(=O)oc3c2C)CN(C(=O)c2ccc(C(=O)NS(=O)(=O)N(C)C)c(N3CCCC3)c2)CC4)CCN1C [Example 20, (R)-N-(N,N-dimethylsulfamoyl)-4-(8-(3-(methoxymethyl)-4-methylpiperazin-1-yl)-7,10-dimethyl-5-oxo-1,3,4,5-tetrahydro-2H-chromeno[3,4-c]pyridine-3-carbonyl)-2-(pyrrolidin-1-yl)benzamide] | – | – | – | – | – |
| 4.00 to 4.70 | 7.00 to 8.00 | 8.00 to 9.00 | H (>9.0 to 30) | COC[C@H]1CN(c2cc(C)c3c4c(c(=O)oc3c2C)CN(C(=O)c2ccc(C(=O)NS(=O)(=O)C3(C)CC3)c(N3CCCC3)c2)CC4)CCN1C [Example 45, (R)-4-(8-(3-(methoxymethyl)-4-methylpiperazin-1-yl)-7,10-dimethyl-5-oxo-1,3,4,5-tetrahydro-2H-chromeno[3,4-c]pyridine-3-carbonyl)-N-((1-methylcyclopropyl)sulfonyl)-2-(pyrrolidin-1-yl)benzamide] | – | – | – | – | – |
